Patent publication US10023593B2, “ALK kinase inhibitor, and preparation method and uses thereof” (BEIJING PEARL BIOTECHNOLOGY LIMITED LIABILITY COMPANY, priority 2014, dated 2018)

Key:
[1] = biological target: T1, L1196M mutant ALK kinase (Homo sapiens, UniProt Q9UM73, L1196M); assay: HTRF KinEASE-TK assay, inhibitory activity on L1196M mutant ALK kinase; type: biochemical; details: L1196M mutant ALK 1 ng/μl, substrate 1 μM, ATP 5 μM, 30° C. 35 minutes, read-out: Inhibition on ALK kinases (L1196M mutant), IC50
T1 construct: purchased Sino-US Crown Bioscience, Inc. batch number ALKm_20110923
T1 sequence (Q9UM73 19-1620 L1196M): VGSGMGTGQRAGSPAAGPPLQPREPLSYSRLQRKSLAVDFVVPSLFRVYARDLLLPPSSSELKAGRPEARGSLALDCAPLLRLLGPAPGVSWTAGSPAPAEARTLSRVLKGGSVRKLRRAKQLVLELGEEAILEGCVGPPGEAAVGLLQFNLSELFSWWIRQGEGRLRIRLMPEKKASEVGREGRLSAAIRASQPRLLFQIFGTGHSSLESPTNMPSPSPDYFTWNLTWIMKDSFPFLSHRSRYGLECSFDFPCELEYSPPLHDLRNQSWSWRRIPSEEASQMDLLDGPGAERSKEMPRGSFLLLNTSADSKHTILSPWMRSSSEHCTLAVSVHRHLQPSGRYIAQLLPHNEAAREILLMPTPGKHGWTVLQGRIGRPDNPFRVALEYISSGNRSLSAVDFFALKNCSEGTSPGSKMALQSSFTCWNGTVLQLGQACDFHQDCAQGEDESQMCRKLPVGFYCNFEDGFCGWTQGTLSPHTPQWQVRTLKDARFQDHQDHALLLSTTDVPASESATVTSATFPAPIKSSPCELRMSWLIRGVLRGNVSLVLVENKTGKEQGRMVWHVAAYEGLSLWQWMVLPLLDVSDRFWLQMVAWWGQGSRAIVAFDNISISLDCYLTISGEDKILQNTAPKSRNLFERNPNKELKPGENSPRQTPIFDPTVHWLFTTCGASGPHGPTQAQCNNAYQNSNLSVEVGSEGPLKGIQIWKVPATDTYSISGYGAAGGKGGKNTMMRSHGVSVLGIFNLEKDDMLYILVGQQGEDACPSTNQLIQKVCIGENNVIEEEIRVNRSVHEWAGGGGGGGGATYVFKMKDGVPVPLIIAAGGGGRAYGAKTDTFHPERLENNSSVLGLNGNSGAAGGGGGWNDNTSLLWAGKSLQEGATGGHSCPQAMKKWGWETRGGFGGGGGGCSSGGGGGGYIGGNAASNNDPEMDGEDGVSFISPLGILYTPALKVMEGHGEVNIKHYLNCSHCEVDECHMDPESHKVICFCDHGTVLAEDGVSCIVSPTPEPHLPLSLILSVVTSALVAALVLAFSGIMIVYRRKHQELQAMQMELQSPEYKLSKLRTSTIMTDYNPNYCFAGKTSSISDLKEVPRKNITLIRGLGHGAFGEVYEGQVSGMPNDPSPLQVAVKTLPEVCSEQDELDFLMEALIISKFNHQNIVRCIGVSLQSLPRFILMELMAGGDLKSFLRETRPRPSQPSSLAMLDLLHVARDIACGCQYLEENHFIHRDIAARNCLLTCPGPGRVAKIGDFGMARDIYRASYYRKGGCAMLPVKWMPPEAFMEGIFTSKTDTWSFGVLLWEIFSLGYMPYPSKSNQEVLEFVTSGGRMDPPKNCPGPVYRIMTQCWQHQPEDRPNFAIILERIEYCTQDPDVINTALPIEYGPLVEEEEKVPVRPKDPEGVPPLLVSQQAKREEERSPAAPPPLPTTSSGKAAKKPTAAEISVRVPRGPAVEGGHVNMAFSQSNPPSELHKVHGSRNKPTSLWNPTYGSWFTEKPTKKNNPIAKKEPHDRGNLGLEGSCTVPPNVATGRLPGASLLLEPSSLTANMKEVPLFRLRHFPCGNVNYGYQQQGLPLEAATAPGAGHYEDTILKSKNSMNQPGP
Outline: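 HTRF TK assay: mutant kinase 1 ng/μl, substrate 1 μM, ATP 5 μM, 5 mM MgCl2, 1 mM DTT, 1% DMSO, 35 min at 30 °C. 665/615 ratio read; inhibition normalised to no-compound and 10.4 μM LDK-378 controls; IC50 from curve fit.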

[2] = system: NCI-H2228 cell line; assay: CellTiter-Glo cell proliferation inhibition on NCI-H2228 cell line; type: cell-based; details: Homo sapiens, NCI-H2228, 96 h, NCI-H2228 cells, 5000 cells/well, 4 days drug treatment
Outline: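 NCI-H2228 cells, 5000/well in RPMI-1640 + 10% FBS, treated with compounds 2 h after seeding (0.5% DMSO final) for 4 days at 37° C. Viability by CellTiter-Glo luminescence; inhibition relative to DMSO control, IC50 from curve fit.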

Compound | IC50 [1] [nM] | IC50 [2] [nM]
Cc1cc(Nc2ncc(Cl)c(Nc3cn(C)nc3S(=O)(=O)CC(C)C)n2)c(OC2CC2)cc1C1CCN(C(C)C)CC1 [Final product 127] | 12 | 142
Cc1cc(Nc2ncc(Cl)c(Nc3cn(C)nc3S(=O)(=O)C(C)C)n2)c(OC(F)(F)F)cc1C1CCN(C)CC1 [Final product 31] | 10 | 374
Cc1cc(Nc2ncc(Cl)c(Nc3cn(C)nc3S(=O)(=O)C(C)C)n2)c(OC2CC2)cc1C1CCOCC1 [Final product 107] | 19 | 174
CCOc1cc(C2CCN(CCO)CC2)c(C)cc1Nc1ncc(Cl)c(Nc2cn(C)nc2S(=O)(=O)C(C)C)n1 [Final product 135] | 7 | 33
CC(C)S(=O)(=O)c1nn(C2CC2)cc1Nc1nc(Nc2cc(F)c(C3CCNCC3)cc2OC2CC2)ncc1Cl [Final product 21] | 2 | 62
CC(C)S(=O)(=O)c1nn(C2CC2)cc1Nc1nc(Nc2ccc(C3CCN(C)CC3)cc2OC2CC2)ncc1Cl [Final product 42] | 3 | 29
Cc1cc(Nc2ncc(Cl)c(Nc3cn(C)nc3S(=O)(=O)C(C)C)n2)c(OC2CC2)cc1[C@H]1CC[C@@H](N(C)C)CC1 [Final product 189] | 7 | 76
Cc1cc(Nc2ncc(Cl)c(Nc3cn(C)nc3S(=O)(=O)C(C)C)n2)c(OC2CC2)cc1[C@H]1CC[C@H](NC(C)C)CC1 [Final product 198] | 9 | 54
Cc1cc(Nc2ncc(Cl)c(Nc3cn(C)nc3S(=O)(=O)CC(C)C)n2)c(OC2CC2)cc1[C@H]1CC[C@H](NC(C)C)CC1 [Final product 182] | 22 | 89
CC(C)S(=O)(=O)c1nn(C)cc1Nc1nc(Nc2ccc(C3CCNC3)cc2OC2CC2)ncc1Cl (centres unmarked) [Final product 15] | 5 | 48
Cc1cc(Nc2ncc(Cl)c(Nc3cn(C)nc3S(=O)(=O)CC(C)C)n2)c(OC2CC2)cc1[C@H]1CC[C@H](NC2CC2)CC1 [Final product 180] | 40 | 127
CCNC(=O)N1CCC(c2cc(OC3CC3)c(Nc3ncc(Cl)c(Nc4cn(C)nc4S(=O)(=O)C(C)C)n3)cc2C)CC1 [Final product 174, 4-(4-(5-chloro-4-(3-(isopropylsulfonyl)-1-methyl-1H-pyrazol-4-amine)pyrimidin-2-amine)-5-cyclopropoxy-2-methyl-phenyl)-N-ethyl-piperidin-1-carboxamide] | 6 | 82
Cc1cc(Nc2ncc(Cl)c(Nc3cn(C)nc3S(=O)(=O)C(C)C)n2)c(OCC2CC2)cc1C1CCN(C)CC1 [Final product 39] | 48 | 226
Cc1cc(Nc2ncc(Cl)c(Nc3cn(C)nc3S(=O)(=O)CC(C)C)n2)c(OC(C)C)cc1C1CN(C)C1 [Final product 36] | 15 | 326
Cc1cc(Nc2ncc(Cl)c(Nc3cn(C)nc3S(=O)(=O)CC(C)C)n2)c(OC2CC2)cc1C1CCN(CCO)CC1 [Final product 137] | 11 | 103
CC(C)S(=O)(=O)c1nn(C)cc1Nc1nc(Nc2cc(C#N)c(C3CCN(C)CC3)cc2OC2CC2)ncc1Cl [Final product 49] | 13 | 165
CC(C)S(=O)(=O)c1nn(C)cc1Nc1nc(Nc2cc(Cl)c(C3CCNCC3)cc2OC2CC2)ncc1Cl [Final product 22] | 12 | 115
Cc1cc(Nc2ncc(Cl)c(Nc3cn(C)nc3S(=O)(=O)C(C)C)n2)c(OC(C)C)cc1C1CCN(C)C1 (centres unmarked) [Final product 37] | 4 | 131
CC(C)S(=O)(=O)c1nn(C2CC2)cc1Nc1nc(Nc2cc(Cl)c(C3CCN(C)CC3)cc2OC2CC2)ncc1Cl [Final product 48] | 5 | 115
Cc1cc(Nc2ncc(Cl)c(Nc3cn(C)nc3S(=O)(=O)C(C)C)n2)c(C(F)(F)F)cc1C1CCN(C)CC1 [Final product 32] | 49 | 1080
CC(C)S(=O)(=O)c1nn(C)cc1Nc1nc(Nc2cc(F)c(C3CCNC3)cc2OC2CC2)ncc1Cl (centres unmarked) [Final product 20] | 34 | 384
Cc1cc(Nc2ncc(Cl)c(Nc3cn(C)nc3S(=O)(=O)C(C)C)n2)c(OC2CC2)cc1C1=C(Cl)CN(C)CC1 [Final product 208, 5-chloro-N^2-[4-(5-chloro-1-methyl-1,2,3,6-tetrahydro-pyridin-4-yl)-2-cyclopropoxy-5-methyl-phenyl]-N^4-[1-methyl-3-(isopropylsulfonyl)-1H-pyrazol-4-yl]-pyrimidin-2,4-diamine] | 36 | 152

Now from value to molecule:

IC50 [1] [nM] | IC50 [2] [nM] | Compound
6 | 168 | Cc1cc(Nc2ncc(Cl)c(Nc3cn(C4CC4)nc3S(=O)(=O)C(C)C)n2)c(OC2CC2)cc1C1CCNCC1 [Final product 27]
8 | 107 | CC(C)S(=O)(=O)c1nn(C2CC2)cc1Nc1nc(Nc2cc(Cl)c(C3CCNCC3)cc2OC2CC2)ncc1Cl [Final product 23]
12 | 142 | Cc1cc(Nc2ncc(Cl)c(Nc3cn(C)nc3S(=O)(=O)C(C)C)n2)c(OC(C)C)cc1C1CCN(C(C)C)CC1 [Final product 126]
15 | 134 | Cc1cc(Nc2ncc(Cl)c(Nc3cn(C)nc3S(=O)(=O)CC(C)C)n2)c(OC2CC2)cc1C1CCNCC1 [Final product 28]
8 | 89 | Cc1cc(Nc2ncc(Cl)c(Nc3cn(C)nc3S(=O)(=O)C(C)C)n2)c(OC(C)C)cc1[C@H]1CC[C@H](NC(C)C)CC1 [Final product 188]
23 | 403 | Cc1cc(Nc2ncc(Cl)c(Nc3cn(C)nc3S(=O)(=O)C(C)C)n2)c(OC(CF)CF)cc1C1CCN(C)CC1 [Final product 34]
7 | 39 | CC(C)S(=O)(=O)c1nn(C2CC2)cc1Nc1nc(Nc2ccc(C3CCNCC3)cc2OC2CC2)ncc1Cl [Final product 16]
21 | 34 | Cc1cc(Nc2ncc(Cl)c(Nc3cn(C)nc3S(=O)(=O)C(C)C)n2)c(OC2CC2)cc1C1CCN(C(=O)C2CC2)CC1 [Final product 162, 1-cyclopropylformyl-4-(4-(5-chloro-4-(3-(isopropylsulfonyl)-1-methyl-1H-pyrazol-4-amino)pyrimidin-2-amine)-5-cyclopropoxy-2-methylphenyl)piperidine]
7 | 86 | Cc1cc(Nc2ncc(Cl)c(Nc3cn(C)nc3S(=O)(=O)C(C)C)n2)c(OC2CC2)cc1C1=CCN(C)CC1 [Final product 50]
35 | 652 | CC(C)S(=O)(=O)c1nn(C)cc1Nc1nc(Nc2ccc(C3CCNCC3)cc2OC(F)(F)F)ncc1Cl [Final product 9]
4 | 157 | CC(C)CS(=O)(=O)c1nn(C)cc1Nc1nc(Nc2ccc(C3CCNC3)cc2OC2CC2)ncc1Cl (centres unmarked) [Final product 18]
8 | 60 | Cc1cc(Nc2ncc(Cl)c(Nc3cn(C)nc3S(=O)(=O)C(C)C)n2)c(OC2CCC2)cc1C1CCN(CCO)CC1 [Final product 138]
7 | 188 | Cc1cc(Nc2ncc(Cl)c(Nc3cn(C)nc3S(=O)(=O)C(C)C)n2)c(OC2CC2)cc1OC1CCN(C)CC1 [Final product 111]
56 | 87 | Cc1cc(Nc2ncc(Cl)c(Nc3cn(C)nc3S(=O)(=O)C(C)C)n2)c(OC2CC2)cc1C1CCN(C(=O)C(C)(C)C)CC1 [Final product 164, 1-pivaloyl-4-(4-(5-chloro-4-(3-(isopropylsulfonyl)-1-methyl-1H-pyrazol-4-amino)pyrimidin-2-amine)-5-cyclopropoxy-2-methylphenyl)piperidine]
18 | 146 | CC(C)S(=O)(=O)c1nn(C2CC2)cc1Nc1nc(Nc2ccc(C3CCN(C)CC3)cc2OC(F)(F)F)ncc1Cl [Final product 38]
28 | 34 | CC(C)S(=O)(=O)c1nn(C2CC2)cc1Nc1nc(Nc2ccc(C3CCN(S(C)(=O)=O)CC3)cc2OC2CC2)ncc1Cl [Final product 173]
9 | 86 | Cc1cc(Nc2ncc(Cl)c(Nc3cn(C)nc3S(=O)(=O)C(C)C)n2)c(OC(C)C)cc1C1CCN(C(C)(C)CO)CC1 [Final product 152]
13 | 288 | Cc1cc(Nc2ncc(Cl)c(Nc3cn(C)nc3S(=O)(=O)C(C)C)n2)c(OC(C)C)cc1C1CNC1 [Final product 4]
10 | 135 | CC(C)S(=O)(=O)c1nn(C)cc1Nc1nc(Nc2cc(F)c(C3CCN(C)C3)cc2OC2CC2)ncc1Cl (centres unmarked) [Final product 45]
18 | 88 | Cc1cc(Nc2ncc(Cl)c(Nc3cn(C)nc3S(=O)(=O)C(C)C)n2)c(OC2CC2)cc1[C@H]1CC[C@H](NC2CC2)CC1 [Final product 196]
7 | 193 | Cc1cc(Nc2ncc(Cl)c(Nc3cn(C)nc3S(=O)(=O)CC(C)C)n2)c(OC(C)C)cc1C1CCNCC1 [Final product 6]
156 | 251 | Cc1cc(Nc2ncc(Cl)c(Nc3cn(C)nc3S(=O)(=O)CC(C)C)n2)c(OC2CC2)cc1C1CN(S(C)(=O)=O)C1 [Final product 171]
10 | 101 | CCN1CCC(c2cc(OC(C)C)c(Nc3ncc(Cl)c(Nc4cn(C)nc4S(=O)(=O)C(C)C)n3)cc2C)CC1 [Final product 118]
6 | 168 | CC(C)S(=O)(=O)c1nn(C)cc1Nc1nc(Nc2ccc(C3=CCNCC3)cc2OC2CC2)ncc1Cl [Final product 14]
